Each block holds one compound with its values, some of them ahead of it.
What was measured:
UCHL1 = target: T1, UCHL1 (Homo sapiens, UniProt P09936); assay: active-site cysteine modification (in-house validation); assay type: binding; settings: covalent
T1 construct: full length residues 1-223, N-terminal GST tag (pGEX6P1), 3C protease elution, E. coli BL21(DE3)
T1 sequence (P09936 1-223): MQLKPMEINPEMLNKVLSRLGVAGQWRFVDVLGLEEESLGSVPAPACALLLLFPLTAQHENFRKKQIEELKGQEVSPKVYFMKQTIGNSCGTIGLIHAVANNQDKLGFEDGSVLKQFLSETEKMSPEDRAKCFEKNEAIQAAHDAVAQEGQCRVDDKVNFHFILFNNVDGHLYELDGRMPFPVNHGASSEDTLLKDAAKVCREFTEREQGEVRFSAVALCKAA

USP40 = target: T2, USP40 (Homo sapiens, UniProt Q9NVE5); assay: DUB-ABPP competition with biotin-Ub-PA / biotin-Ub-VME, TMT MS; assay type: biochemical; settings: chloroacetamide; 10 µM
T2 construct: endogenous full-length protein in HEK293T lysate
T2 sequence (Q9NVE5 1-1235): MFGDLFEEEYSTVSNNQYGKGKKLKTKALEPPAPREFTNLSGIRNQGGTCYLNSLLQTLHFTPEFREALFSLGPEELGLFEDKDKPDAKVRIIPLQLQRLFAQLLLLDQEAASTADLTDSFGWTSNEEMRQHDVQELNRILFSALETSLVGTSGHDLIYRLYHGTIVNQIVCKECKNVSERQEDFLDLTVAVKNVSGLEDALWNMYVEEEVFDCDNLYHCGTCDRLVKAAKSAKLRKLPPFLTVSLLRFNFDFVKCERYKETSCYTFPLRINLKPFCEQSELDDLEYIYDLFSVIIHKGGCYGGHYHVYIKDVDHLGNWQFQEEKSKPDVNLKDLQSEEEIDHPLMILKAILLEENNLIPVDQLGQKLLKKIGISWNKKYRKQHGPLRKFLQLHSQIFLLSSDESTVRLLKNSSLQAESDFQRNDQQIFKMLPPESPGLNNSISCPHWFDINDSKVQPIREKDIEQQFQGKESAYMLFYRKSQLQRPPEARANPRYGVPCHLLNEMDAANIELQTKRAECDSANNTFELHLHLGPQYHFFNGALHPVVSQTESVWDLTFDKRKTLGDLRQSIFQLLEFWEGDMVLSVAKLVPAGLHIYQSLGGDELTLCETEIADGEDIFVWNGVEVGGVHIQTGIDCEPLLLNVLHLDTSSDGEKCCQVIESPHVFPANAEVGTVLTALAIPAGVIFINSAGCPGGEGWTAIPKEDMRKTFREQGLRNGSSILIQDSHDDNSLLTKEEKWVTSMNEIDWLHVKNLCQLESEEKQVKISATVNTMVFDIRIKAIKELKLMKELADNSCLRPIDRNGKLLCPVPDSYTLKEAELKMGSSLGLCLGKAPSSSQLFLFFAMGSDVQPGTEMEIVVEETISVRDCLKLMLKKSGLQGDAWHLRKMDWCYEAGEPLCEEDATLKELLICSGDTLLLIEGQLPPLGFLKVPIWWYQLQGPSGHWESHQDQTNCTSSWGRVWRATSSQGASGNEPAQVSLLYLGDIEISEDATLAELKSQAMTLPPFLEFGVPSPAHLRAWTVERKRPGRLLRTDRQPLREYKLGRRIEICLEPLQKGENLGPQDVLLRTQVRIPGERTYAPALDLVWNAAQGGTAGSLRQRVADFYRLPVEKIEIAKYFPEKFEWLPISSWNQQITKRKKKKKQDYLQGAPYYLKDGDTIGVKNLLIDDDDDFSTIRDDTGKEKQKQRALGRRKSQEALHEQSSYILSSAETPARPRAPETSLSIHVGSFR

VCPIP1 = target: T3, VCPIP1 (Homo sapiens, UniProt Q96JH7); assay: targeted cysteine chemoproteomics (PRM-LIVE); assay type: biochemical; settings: covalent (catalytic cysteine); 50 µM compound in cell extract
T3 construct: endogenous full-length protein in HEK293 / HEK293T cell extract
T3 sequence (Q96JH7 1-1222): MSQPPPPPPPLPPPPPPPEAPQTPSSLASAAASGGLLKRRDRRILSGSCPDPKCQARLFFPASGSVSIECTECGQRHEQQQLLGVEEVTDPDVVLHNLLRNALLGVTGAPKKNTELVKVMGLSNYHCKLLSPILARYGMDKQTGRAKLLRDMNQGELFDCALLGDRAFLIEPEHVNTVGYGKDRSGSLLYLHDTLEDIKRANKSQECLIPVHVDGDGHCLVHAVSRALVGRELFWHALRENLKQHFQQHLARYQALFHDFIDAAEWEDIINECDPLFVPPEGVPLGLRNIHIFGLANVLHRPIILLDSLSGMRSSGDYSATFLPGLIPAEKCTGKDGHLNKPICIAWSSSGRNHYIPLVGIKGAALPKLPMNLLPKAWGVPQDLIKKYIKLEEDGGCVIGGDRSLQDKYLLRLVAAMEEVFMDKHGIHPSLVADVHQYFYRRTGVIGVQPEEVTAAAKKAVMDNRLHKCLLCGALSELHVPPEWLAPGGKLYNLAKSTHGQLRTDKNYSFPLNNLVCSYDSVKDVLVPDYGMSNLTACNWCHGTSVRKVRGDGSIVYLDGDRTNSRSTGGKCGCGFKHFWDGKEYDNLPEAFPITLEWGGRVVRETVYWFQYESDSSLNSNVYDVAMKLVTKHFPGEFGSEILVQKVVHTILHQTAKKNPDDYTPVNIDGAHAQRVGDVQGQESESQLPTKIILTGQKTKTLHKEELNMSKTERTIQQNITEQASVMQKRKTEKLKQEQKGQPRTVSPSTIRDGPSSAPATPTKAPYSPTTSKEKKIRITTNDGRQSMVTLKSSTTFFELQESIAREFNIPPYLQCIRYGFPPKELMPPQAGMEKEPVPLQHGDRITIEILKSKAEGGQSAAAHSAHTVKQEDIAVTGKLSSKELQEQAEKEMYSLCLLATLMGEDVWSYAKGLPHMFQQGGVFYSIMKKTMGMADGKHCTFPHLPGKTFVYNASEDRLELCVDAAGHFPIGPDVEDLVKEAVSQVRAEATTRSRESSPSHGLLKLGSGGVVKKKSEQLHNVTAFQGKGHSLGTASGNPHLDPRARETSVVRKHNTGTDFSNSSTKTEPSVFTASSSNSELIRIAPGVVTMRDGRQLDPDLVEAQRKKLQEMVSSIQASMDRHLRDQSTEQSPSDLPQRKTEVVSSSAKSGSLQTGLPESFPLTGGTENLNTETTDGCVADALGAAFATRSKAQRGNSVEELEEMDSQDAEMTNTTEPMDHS

BAP1 = target: T4, BAP1 (Homo sapiens, UniProt Q92560); assay: DUB-ABPP competition with biotin-Ub-PA / biotin-Ub-VME, TMT MS; assay type: biochemical; settings: chloroacetamide; 50 µM
T4 construct: endogenous full-length protein in HEK293T lysate
T4 sequence (Q92560 1-729): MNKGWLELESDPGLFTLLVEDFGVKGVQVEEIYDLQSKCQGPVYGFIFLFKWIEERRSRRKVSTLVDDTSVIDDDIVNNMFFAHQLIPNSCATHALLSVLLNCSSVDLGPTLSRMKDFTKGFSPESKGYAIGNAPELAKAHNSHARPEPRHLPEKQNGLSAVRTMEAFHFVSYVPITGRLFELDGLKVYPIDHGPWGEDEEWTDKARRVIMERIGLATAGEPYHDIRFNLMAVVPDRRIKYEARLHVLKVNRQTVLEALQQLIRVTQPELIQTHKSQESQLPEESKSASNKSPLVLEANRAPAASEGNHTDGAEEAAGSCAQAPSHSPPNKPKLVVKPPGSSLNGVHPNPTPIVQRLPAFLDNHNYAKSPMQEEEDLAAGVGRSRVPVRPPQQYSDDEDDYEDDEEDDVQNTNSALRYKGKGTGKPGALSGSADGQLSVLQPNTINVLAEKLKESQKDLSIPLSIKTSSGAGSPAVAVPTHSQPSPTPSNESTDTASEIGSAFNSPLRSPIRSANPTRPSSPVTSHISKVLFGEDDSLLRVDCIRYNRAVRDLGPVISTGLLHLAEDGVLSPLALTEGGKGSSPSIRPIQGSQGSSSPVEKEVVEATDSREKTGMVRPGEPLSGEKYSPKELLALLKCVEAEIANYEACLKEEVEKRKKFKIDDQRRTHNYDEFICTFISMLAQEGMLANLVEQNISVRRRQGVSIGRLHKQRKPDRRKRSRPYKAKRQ

USP7 = target: T5, USP7 (Homo sapiens, UniProt Q93009); assay: as above; assay type: biochemical; settings: covalent inhibitor
T5 construct: endogenous full-length protein in HEK293T lysate

USP22 = target: T6, USP22 (Homo sapiens, UniProt Q9UPT9); design: ubiquitin-rhodamine cleavage by purified DUB, fluorescence initial rate, 6 h pre-incubation with inhibitor; settings: n=1; inhibitor
T6 construct: purified enzyme
T6 sequence (Q9UPT9 1-525): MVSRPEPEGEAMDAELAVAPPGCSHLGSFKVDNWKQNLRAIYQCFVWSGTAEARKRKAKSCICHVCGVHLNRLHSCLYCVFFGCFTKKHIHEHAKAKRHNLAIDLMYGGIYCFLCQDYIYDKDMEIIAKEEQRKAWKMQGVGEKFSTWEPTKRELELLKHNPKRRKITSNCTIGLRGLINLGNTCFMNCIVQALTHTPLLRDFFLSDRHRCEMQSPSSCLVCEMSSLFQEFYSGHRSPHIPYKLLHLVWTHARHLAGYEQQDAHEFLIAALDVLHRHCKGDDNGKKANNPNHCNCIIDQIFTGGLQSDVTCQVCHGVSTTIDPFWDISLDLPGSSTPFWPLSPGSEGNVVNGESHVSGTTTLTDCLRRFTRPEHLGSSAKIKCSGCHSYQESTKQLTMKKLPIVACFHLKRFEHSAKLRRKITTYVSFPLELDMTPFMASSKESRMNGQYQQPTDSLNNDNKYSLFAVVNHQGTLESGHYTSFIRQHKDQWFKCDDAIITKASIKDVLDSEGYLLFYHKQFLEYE

T5 sequence (Q93009 whole entry): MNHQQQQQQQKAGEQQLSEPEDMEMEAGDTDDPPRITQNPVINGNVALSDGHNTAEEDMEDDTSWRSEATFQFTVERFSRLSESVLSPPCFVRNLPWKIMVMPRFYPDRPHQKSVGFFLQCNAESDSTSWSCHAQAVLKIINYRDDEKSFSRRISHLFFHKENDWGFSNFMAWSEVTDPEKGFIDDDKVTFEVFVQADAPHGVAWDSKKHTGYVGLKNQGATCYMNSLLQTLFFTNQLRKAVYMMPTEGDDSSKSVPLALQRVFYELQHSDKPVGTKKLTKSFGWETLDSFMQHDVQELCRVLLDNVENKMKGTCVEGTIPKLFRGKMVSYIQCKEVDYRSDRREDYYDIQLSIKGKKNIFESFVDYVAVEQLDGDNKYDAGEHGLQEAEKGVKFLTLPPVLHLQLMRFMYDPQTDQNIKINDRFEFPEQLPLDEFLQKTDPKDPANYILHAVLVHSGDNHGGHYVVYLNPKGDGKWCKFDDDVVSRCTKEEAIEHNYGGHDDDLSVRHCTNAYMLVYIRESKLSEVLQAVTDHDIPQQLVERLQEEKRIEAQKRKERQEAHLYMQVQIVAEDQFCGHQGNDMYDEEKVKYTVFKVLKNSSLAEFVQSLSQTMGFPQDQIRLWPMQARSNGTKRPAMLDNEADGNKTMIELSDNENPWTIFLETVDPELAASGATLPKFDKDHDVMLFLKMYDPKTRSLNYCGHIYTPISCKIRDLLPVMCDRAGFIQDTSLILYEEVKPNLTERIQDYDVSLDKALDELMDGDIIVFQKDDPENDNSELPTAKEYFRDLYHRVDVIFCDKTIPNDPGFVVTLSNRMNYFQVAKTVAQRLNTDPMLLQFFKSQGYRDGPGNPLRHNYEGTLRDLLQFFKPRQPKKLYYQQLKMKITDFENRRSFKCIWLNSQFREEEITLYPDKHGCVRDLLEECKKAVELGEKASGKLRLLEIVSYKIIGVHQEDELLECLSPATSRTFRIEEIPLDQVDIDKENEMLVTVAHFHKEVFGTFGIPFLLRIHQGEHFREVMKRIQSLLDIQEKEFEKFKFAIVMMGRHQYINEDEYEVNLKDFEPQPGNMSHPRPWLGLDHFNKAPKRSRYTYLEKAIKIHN

Structure (SMILES): N#CN1CCC(C(=O)Nc2cn(Cc3ccccc3)cn2)C1 (stereo not drawn) [SB1-F-22]
active-site cysteine modification (in-house validation) (UCHL1): validated in-house to modify the active site cysteine of UCHL1

DUB-ABPP competition with biotin-Ub-PA / biotin-Ub-VME, TMT MS (USP40): USP16 (V03), and USP40 (V08, V09)
Structure (SMILES): COc1ccc(C(=O)NCC2CN(C(=O)CCl)C2)cc1 [V08]

% target occupancy at 50 μM (VCPIP1): ~ 78%
Structure (SMILES): O=C(NCC1CN(C(=O)CCl)C1)c1ccccc1 [WH-9943-103C]
DUB-ABPP competition with biotin-Ub-PA / biotin-Ub-VME, TMT MS (BAP1): hit several DUBs including VCPIP1 (WH-9943-103C), BAP1 (WH-9943-103C)

Structure (SMILES): CN1CCN(CCC(=O)Nc2ccc3c(=O)n(CC4(O)CCN(C(=O)[C@@H](CCCNC(=O)c5ccc6c(Cl)c7c(nc6c5)CCCC7)Cc5ccccc5)CC4)cnc3c2)CC1 [XL177A]
DUB-ABPP competition with biotin-Ub-PA / biotin-Ub-VME, TMT MS (USP7): recapitulated the DUB binding profiles expected for our selective chemotypes

IC50 (USP22): 94.4 µM
Structure (SMILES): O=C(CCl)N1CCC(O)(CNc2ncc3ccccc3n2)CC1 [XL_10320_009A]
